Measured values as given in ChEMBL document CHEMBL5352441, “Modulation of FLT3-ITD and CDK9 in acute myeloid leukaemia cells by novel proteolysis targeting chimera (PROTAC)” (2022).
Active and inactive are the calls of the source. No cut-off for these calls is given here.

Legend:
[1] = tested on: HL-60; test: Antiproliferative activity against human HL-60 cells assessed as cell growth inhibition incubated for 72 hrs by resazurin dye based fluorescence analysis; type: functional
[2] = tested on: U-937; test: Antiproliferative activity against human U-937 cells assessed as cell growth inhibition incubated for 72 hrs by resazurin dye based fluorescence analysis; type: functional
[3] = tested on: CCRF-CEM; test: Antiproliferative activity against human CEM cells assessed as cell growth inhibition incubated for 72 hrs by resazurin dye based fluorescence analysis; type: functional
[4] = tested on: K562; test: Antiproliferative activity against human K562 cells assessed as cell growth inhibition incubated for 72 hrs by resazurin dye based fluorescence analysis; type: functional
[5] = Selectivity index, ratio of GI50 for antiproliferative activity against CRBN-deficient human MV4-11 cells to GI50 for antiproliferative activity against human MV4-11 cells harboring FLT3-ITD mutation; type: functional
[6] = target: Receptor-type tyrosine-protein kinase FLT3 (Homo sapiens) (UniProt P36888); test: Inhibition of human FLT3 assessed as residual activity at 100 nM relative to control
[7] = tested on: Receptor-type tyrosine-protein kinase FLT3 (Homo sapiens), P36888 [UNDEFINED MUTATION]; test: Inhibition of FLT3 in human MV4-11 cells harboring FLT3-ITD mutation assessed as reduction in STAT5 phosphorylation at Y694 residue at 0.004 to 2.5 uM incubated for 16 hrs by immunoblot analysis; type: cell-based; conditions: dose 0.004-2.5 µM
[8] = target: T1, Protein cereblon/Receptor-type tyrosine-protein kinase FLT3 (Homo sapiens) (UniProt P36888+Q96SW2); test: PROTAC activity at CRBN/FLT3 in human MV4-11 cells harboring FLT3-ITD mutation assessed as induction of protein degradation at […] incubated for 16 hrs by immunoblot analysis; type: cell-based
[9] = target: T1, Protein cereblon/Receptor-type tyrosine-protein kinase FLT3 (Homo sapiens); test: PROTAC activity at CRBN/FLT3 in CRBN-deficient human MV4-11 cells assessed as induction of protein degradation at 0.004 to 2.5 uM incubated for 16 hrs by immunoblot analysis; type: cell-based; conditions: dose 0.004-2.5 µM
[10] = tested on: MV4-11; test: Induction of apoptosis in human MV4-11 cells assessed as activation of caspase 3 incubated for 16 hrs in presence of Ac-DEVD-AMC by fluorescence microplate reader analysis; type: functional, cell-based; conditions: dose 0.004-2.5 µM
[11] = tested on: MV4-11; test: Induction of cell cycle arrest in human MV4-11 cells assessed as accumulation of cells at S phase at 0.004 uM incubated for 16 hrs by PI staining based flow cytometry analysis (reference value: 26.16%); type: functional
[12] = tested on: MV4-11; test: Induction of cell cycle arrest in human MV4-11 cells assessed as accumulation of cells at G2/M phase at 0.004 uM incubated for 16 hrs by PI staining based flow cytometry analysis (reference value: 10.86%); type: functional
[13] = tested on: MV4-11; test: Induction of cell cycle arrest in human MV4-11 cells assessed as accumulation of cells at subG1 phase at 0.004 uM incubated for 16 hrs by PI staining based flow cytometry analysis (reference value: 10.51%); type: functional
[14] = tested on: MV4-11; test: Induction of cell cycle arrest in human MV4-11 cells assessed as accumulation of cells at G2/M phase at 0.02 uM incubated for 16 hrs by PI staining based flow cytometry analysis (reference value: 10.86%); type: functional
[15] = tested on: MV4-11; test: Induction of cell cycle arrest in human MV4-11 cells assessed as accumulation of cells at S phase at 0.1 uM incubated for 16 hrs by PI staining based flow cytometry analysis (reference value: 26.16%); type: functional
[16] = tested on: MV4-11; test: Induction of cell cycle arrest in human MV4-11 cells assessed as accumulation of cells at G2/M phase at 0.1 uM incubated for 16 hrs by PI staining based flow cytometry analysis (reference value: 10.86%); type: functional
[17] = tested on: MV4-11; test: Induction of cell cycle arrest in CRBN-deficient human MV4-11 cells assessed as accumulation of cells at G1 phase at 0.004 uM incubated for 16 hrs by PI staining based flow cytometry analysis (reference value: 54.05%); type: functional
[18] = tested on: MV4-11; test: Induction of cell cycle arrest in CRBN-deficient human MV4-11 cells assessed as accumulation of cells at G1 phase at 0.02 uM incubated for 16 hrs by PI staining based flow cytometry analysis (reference value: 54.05%); type: functional
[19] = tested on: MV4-11; test: Induction of cell cycle arrest in CRBN-deficient human MV4-11 cells assessed as accumulation of cells at S phase at 0.02 uM incubated for 16 hrs by PI staining based flow cytometry analysis (reference value: 36.91%); type: functional
[20] = tested on: MV4-11; test: Induction of cell cycle arrest in CRBN-deficient human MV4-11 cells assessed as accumulation of cells at G2/M phase at 0.02 uM incubated for 16 hrs by PI staining based flow cytometry analysis (reference value: 9.34%); type: functional
[21] = tested on: MV4-11; test: Induction of cell cycle arrest in CRBN-deficient human MV4-11 cells assessed as accumulation of cells at sub-G1 phase at 0.02 uM incubated for 16 hrs by PI staining based flow cytometry analysis (reference value: 12.52%); type: functional
[22] = tested on: MV4-11; test: Induction of cell cycle arrest in CRBN-deficient human MV4-11 cells assessed as accumulation of cells at G2/M phase at 0.5 uM incubated for 16 hrs by PI staining based flow cytometry analysis (reference value: 9.34%); type: functional
[23] = tested on: MV4-11; test: Induction of cell cycle arrest in CRBN-deficient human MV4-11 cells assessed as accumulation of cells at S phase at 2.5 uM incubated for 16 hrs by PI staining based flow cytometry analysis (reference value: 36.91%); type: functional
[24] = tested on: MV4-11; test: Induction of cell cycle arrest in CRBN-deficient human MV4-11 cells assessed as accumulation of cells at G2/M phase at 2.5 uM incubated for 16 hrs by PI staining based flow cytometry analysis (reference value: 9.34%); type: functional
[25] = tested on: MV4-11; test: Downregulation of HOXA9 gene expression in human MV4-11 cells incubated for 4 hrs by qRT-PCR analysis; type: functional, cell-based; conditions: dose 0.004-2.5 µM
[26] = tested on: MV4-11; test: Downregulation of MCL-1 gene expression in human MV4-11 cells incubated for 4 hrs by qRT-PCR analysis; type: functional, cell-based; conditions: dose 0.004-2.5 µM
[27] = tested on: MV4-11; test: Downregulation of Myb gene expression in human MV4-11 cells incubated for 4 hrs by qRT-PCR analysis; type: functional, cell-based; conditions: dose 0.004-2.5 µM
[28] = target: T1, Protein cereblon/Receptor-type tyrosine-protein kinase FLT3 (Homo sapiens); test: PROTAC activity at CRBN/FLT3 in human MV4-11 cells at 0.1 to 0.5 uM preincubated for 90 mins with 4-hydroxythalidomide followed by compound addition and further incubated for 16 hrs by immunoblot analysis; type: cell-based; conditions: dose 0.1-0.5 µM
[29] = tested on: MV4-11; test: Induction of apoptosis in human MV4-11 cells assessed as activation of caspase 3 at 0.1 to 0.5 uM preincubated for 90 mins with 4-hydroxythalidomide followed by compound addition and further incubated for 16 hrs in presence of Ac-DEVD-AMC by fluorescence microplate reader analysis; type: functional, cell-based; conditions: dose 0.1-0.5 µM
[30] = tested on: MV4-11; test: Induction of apoptosis in human MV4-11 cells assessed as activation of caspase 7 at 0.1 to 0.5 uM preincubated for 90 mins with 4-hydroxythalidomide followed by compound addition and further incubated for 16 hrs in presence of Ac-DEVD-AMC by fluorescence microplate reader analysis; type: functional, cell-based; conditions: dose 0.1-0.5 µM
[31] = target: Protein cereblon/Cyclin-dependent kinase 9 (Homo sapiens) (UniProt P50750+Q96SW2); test: PROTAC activity at CRBN/CDK9 in human MV4-11 cells at 0.1 to 0.5 uM preincubated for 90 mins with MG132 followed by compound addition and further incubated for 16 hrs by immunoblot analysis; type: cell-based; conditions: dose 0.1-0.5 µM
Protein cereblon/Cyclin-dependent kinase 9 (Homo sapiens), sequence (P50750 whole entry, looked up): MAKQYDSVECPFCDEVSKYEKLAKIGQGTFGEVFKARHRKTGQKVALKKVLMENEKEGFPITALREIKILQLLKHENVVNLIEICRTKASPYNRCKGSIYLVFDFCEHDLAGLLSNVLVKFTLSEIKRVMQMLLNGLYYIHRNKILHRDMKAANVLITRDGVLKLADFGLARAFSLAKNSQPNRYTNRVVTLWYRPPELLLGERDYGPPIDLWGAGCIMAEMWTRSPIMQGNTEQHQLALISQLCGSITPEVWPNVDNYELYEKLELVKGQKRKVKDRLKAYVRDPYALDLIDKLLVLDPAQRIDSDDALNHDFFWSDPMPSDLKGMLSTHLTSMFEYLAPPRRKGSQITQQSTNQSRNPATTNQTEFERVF
Protein cereblon/Cyclin-dependent kinase 9 (Homo sapiens), sequence (Q96SW2 whole entry, looked up): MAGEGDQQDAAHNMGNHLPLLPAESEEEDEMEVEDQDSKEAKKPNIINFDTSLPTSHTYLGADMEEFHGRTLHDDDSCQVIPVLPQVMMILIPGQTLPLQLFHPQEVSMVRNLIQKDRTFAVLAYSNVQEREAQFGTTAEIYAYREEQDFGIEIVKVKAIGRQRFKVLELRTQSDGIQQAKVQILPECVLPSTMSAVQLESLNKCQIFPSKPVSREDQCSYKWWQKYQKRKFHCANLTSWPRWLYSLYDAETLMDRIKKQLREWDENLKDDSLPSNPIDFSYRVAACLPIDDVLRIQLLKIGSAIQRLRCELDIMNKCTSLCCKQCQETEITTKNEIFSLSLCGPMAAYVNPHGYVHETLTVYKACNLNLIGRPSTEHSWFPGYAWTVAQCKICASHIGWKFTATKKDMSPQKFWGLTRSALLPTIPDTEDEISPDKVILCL

T1 sequence (P36888 27-993 limits assumed): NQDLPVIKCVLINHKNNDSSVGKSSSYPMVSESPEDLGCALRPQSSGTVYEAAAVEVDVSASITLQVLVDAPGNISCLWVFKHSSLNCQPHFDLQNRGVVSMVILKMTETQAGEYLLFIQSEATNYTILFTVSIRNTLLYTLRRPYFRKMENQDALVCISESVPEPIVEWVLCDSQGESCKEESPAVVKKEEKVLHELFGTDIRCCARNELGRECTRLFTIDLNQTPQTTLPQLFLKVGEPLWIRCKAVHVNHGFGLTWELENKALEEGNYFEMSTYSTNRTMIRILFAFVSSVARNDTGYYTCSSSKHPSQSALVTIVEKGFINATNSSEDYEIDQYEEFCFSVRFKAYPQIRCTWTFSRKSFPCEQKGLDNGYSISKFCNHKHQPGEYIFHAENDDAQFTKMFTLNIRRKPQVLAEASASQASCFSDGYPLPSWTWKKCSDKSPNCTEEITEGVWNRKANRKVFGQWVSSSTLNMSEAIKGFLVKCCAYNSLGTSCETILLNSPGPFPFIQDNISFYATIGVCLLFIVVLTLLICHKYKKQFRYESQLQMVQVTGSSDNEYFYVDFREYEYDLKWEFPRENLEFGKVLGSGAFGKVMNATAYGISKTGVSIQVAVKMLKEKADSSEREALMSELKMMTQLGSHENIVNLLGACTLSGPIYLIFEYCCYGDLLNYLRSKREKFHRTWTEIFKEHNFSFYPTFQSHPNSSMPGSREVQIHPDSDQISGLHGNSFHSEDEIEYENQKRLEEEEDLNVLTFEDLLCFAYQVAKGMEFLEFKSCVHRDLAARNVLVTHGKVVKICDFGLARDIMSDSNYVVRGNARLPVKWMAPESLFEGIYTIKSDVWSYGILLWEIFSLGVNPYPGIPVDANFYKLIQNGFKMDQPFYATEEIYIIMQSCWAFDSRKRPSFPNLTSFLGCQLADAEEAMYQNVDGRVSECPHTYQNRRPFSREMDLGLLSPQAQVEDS
T1 sequence (Q96SW2 whole entry partner): as the sequence (Q96SW2 whole entry, looked up) above
Receptor-type tyrosine-protein kinase FLT3 (Homo sapiens), P36888 [UNDEFINED MUTATION], sequence (P36888 whole entry, looked up, change not shown): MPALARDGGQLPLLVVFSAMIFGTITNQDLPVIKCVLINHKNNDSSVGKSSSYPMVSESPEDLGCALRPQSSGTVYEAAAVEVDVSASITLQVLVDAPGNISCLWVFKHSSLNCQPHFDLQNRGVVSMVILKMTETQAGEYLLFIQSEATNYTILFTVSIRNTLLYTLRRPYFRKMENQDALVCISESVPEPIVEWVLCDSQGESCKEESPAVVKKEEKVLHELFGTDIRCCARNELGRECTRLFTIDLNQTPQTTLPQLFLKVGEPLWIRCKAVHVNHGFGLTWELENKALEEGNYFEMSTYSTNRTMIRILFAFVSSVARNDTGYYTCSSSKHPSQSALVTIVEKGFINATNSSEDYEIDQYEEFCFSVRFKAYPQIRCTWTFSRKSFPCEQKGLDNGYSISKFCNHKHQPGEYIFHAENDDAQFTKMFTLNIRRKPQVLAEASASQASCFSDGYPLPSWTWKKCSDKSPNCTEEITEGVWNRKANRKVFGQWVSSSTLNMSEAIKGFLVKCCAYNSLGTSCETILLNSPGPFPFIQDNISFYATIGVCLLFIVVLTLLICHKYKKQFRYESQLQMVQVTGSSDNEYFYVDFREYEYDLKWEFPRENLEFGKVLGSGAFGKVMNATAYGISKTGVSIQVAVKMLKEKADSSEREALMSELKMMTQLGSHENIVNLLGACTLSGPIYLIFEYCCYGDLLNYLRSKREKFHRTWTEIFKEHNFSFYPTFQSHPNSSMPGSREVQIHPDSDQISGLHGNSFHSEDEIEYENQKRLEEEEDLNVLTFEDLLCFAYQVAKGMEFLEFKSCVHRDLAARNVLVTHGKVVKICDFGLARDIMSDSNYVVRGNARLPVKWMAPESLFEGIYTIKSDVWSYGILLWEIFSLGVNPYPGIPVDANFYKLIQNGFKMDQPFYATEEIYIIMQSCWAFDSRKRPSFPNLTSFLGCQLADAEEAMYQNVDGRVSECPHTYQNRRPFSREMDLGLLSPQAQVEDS
Receptor-type tyrosine-protein kinase FLT3 (Homo sapiens), sequence (P36888 whole entry): as the sequence (P36888 whole entry, looked up, change not shown) above

NC1CCC(Nc2nc(Nc3ccc(N4CCN(CCOCCOCCNC(=O)CNc5cccc6c5C(=O)N(C5CCC(=O)NC5=O)C6=O)CC4)cc3)c3ncn(C4CCCC4)c3n2)CC1 (stereo unspecified)
GI50 [1]: 6.12 µM
GI50 [2]: 9.51 µM
GI50 [3]: > 10 µM
GI50 [4]: > 10 µM
RatioGI50 [5]: 2
Activity [6]: 2%
inhibition [7]: Active
Activity [8]: Active
Activity [9]: inactive
Activity [10]: Dose-Dependent Effect
Activity [11]: 21.5%
Activity [12]: 9.03%
Activity [13]: 11.53%
Activity [14]: 5.22%
Activity [15]: 6.42%
Activity [16]: 3.96%
Activity [17]: 63.08%
Activity [18]: 76.96%
Activity [19]: 17.04%
Activity [20]: 6%
Activity [21]: 13.43%
Activity [22]: 3.91%
Activity [23]: 6.05%
Activity [24]: 4.56%
Activity [25]: Dose-Dependent Effect
Activity [26]: Dose-Dependent Effect
Activity [27]: Dose-Dependent Effect
Activity [28]: inactive
Activity [29]: inactive
Activity [30]: inactive
Activity [31]: inactive
